The data set in a line: Log P by HPLC on reversed phase columns (EEC directive 79/831 Annex V.A8; methods [a], [b], [c]). The format is physicochemical. Particulars: for chromatographic logP: reversed phase HPLC column, method [a]: LC-UV, acidic range, 0.1% formic acid in water and acetonitrile as eluent (linear gradient from 10% to 95% acetonitrile). In a few lines:
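Log P derived from retention times, interpolated linearly between bracketing straight-chain alkan-2-ones (3–16 carbons) of known Log P. Eluents ran acetonitrile 10% to 95% against water with 0.1% formic acid ([a], acidic), 0.001 M ammonium acetate ([b], neutral) or 0.1% phosphoric acid ([c], acidic); UV read-out.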

The chromatographic logP is lipophilicity estimated from chromatographic retention.

The structures appear in SMILES notation.

As for `N#Cc1cncn1CC(O)(CC1CC1)c1cc(F)c(F)cc1F` (stereo not drawn) [I-514], the LogP was 2.36^[a]. Same read-out and setting: as for `N#Cc1cncn1CC(O)(c1ccc(Cl)c(F)c1)C1(F)CC1` (stereo not drawn) [I-446], the figure is 2.44^[a]; as for `N#Cc1cncn1CC(O)(c1ccc(F)cc1)C1(Cl)CC1` (stereo not drawn) [I-248], 2.21^[a]; as for `CC(=O)c1cncn1CC(C)(O)c1ccc(Oc2ccc(Br)cc2)cc1F` (stereo not drawn) [I-190], 2.75^[a]. Same read-out and setting: to `Cc1ccc(C)c(C#CC(O)(Cn2cncc2C#N)C2(Cl)CC2)c1` (stereo not drawn) [I-298] belongs 3.09^[a]. On the same count and under the same terms, to `C[Si](C)(C)C#CC(O)(Cn1cncc1C#N)C1(F)CC1` (stereo not drawn) [I-600] belongs 2.45^[a]; to `N#Cc1cncn1CC(O)(c1ccc(F)c(F)c1F)C1(Cl)CC1` (stereo not drawn) [I-626], 2.37^[a]. For `CC(C)CC(O)(Cn1cncc1C#N)c1ccc(Cl)cc1Cl` (stereo not drawn) [I-303], the LogP was 3.39^[a]. Same read-out and setting: as for `OC(Cn1cncc1F)c1cnc(Oc2ccc(Cl)cc2F)cc1C(F)(F)F` (stereo not drawn) [I-113], the figure is 2.35^[a]. The same measure, in the same setting: as for `C[Si](C)(C)C#CC(O)(CC1CC1)Cn1cncc1C#N` (stereo not drawn) [I-454], the figure is 2.70^[a]. The same measure, in the same setting: as for `N#Cc1cncn1CC(O)(CC1CC1)c1ccc(C(F)(F)F)cc1Br` (stereo not drawn) [I-436], the figure is 2.90^[a]; as for `N#Cc1cncn1CC(O)c1cnc(Oc2ccc(S(F)(F)(F)(F)F)cc2)cc1C(F)(F)F` (stereo not drawn) [I-96], 3.44^[a]; as for `N#Cc1cncn1CC(O)(C#Cc1cc(F)cc(F)c1)C1(Cl)CC1` (stereo not drawn) [I-319], 2.59^[a]. `CC(O)(Cn1cncc1F)c1ccc(Oc2ccc(Cl)cc2)nc1C(F)(F)F` (stereo not drawn) [I-257]: the LogP was 2.32^[a].

On to `COC(C)(Cn1cncc1Br)c1ccc(Oc2ccc(Cl)cc2)cc1C(F)(F)F` (stereo not drawn) [I-201], for which the LogP is 3.76^[a]. The same measure, in the same setting: as for `C=C(C)CC(O)(Cn1cncc1C#N)C1(Cl)CC1` (stereo not drawn) [I-675], the figure is 2.35^[a]. In turn, `O=C(Cn1cncc1Br)c1ccc(Oc2ccc(Cl)cc2)cc1F` [IX-46] yielded a chromatographic logP of 2.86. As for `COC(Cn1cncc1Br)c1ccc(Oc2ccc(Cl)cc2)cc1Br` (stereo not drawn) [I-50], the LogP is 3.59^[a]. In the case of `CC(O)(Cn1cncc1C#N)c1ccc(Oc2ccc(I)cc2)cc1F` (stereo not drawn) [I-189], the LogP is 3.48^[a].

In the case of `COC(Cn1cncc1C#N)c1ccc(Oc2ccc(Br)cc2)cc1F` (stereo not drawn) [I-55], the LogP is 3.79^[a].

As to `N#Cc1cncn1CC(O)(CCc1ccc(OC(F)(F)F)c(F)c1)C1(Cl)CC1` (stereo not drawn) [I-359], the LogP is 3.31^[a]. On the same count and under the same terms, to `N#Cc1cncn1CC(O)(c1cc(F)c(Cl)cc1Cl)C1(Cl)CC1` (stereo not drawn) [I-585] belongs 2.75^[a].

Take `N#Cc1cncn1CC(O)(c1c(Cl)ccc(Cl)c1F)C1(F)CC1` (stereo not drawn) [I-564]: the LogP is 2.39^[a]. `OC(Cn1cncc1Cl)c1ccc(Oc2ccc(Cl)nc2)cc1C(F)(F)F` (stereo not drawn) [I-19]: the LogP was 2.14^[a]. The same measure, in the same setting: to `O=C(Cn1cncc1F)c1ccc(Oc2ccc(Cl)cc2)nc1C(F)(F)F` [IX-106] belongs 2.59^[a]. In the case of `CC(O)(Cn1cncc1Cl)c1cnc(Oc2ccc(Cl)cc2)cc1Cl` (stereo not drawn) [I-162], the LogP is 2.41^[a].

As for `N#Cc1cncn1CC(O)(c1cc(F)cc(Cl)c1)C1(F)CC1` (stereo not drawn) [I-474], the LogP is 2.38^[a]. The same measure, in the same setting: to `CCOC(Cn1cncc1C#N)c1ccc(Oc2ccc(Br)cc2)cc1C(F)(F)F` (stereo not drawn) [I-91] belongs 4.69^[a]. The same measure, in the same setting: to `CC(C)(C)CC(O)(Cn1cncc1C#N)c1ccc(F)cc1` (stereo not drawn) [I-226] belongs 2.90^[a].

Take `COc1ccc(C(O)(Cn2cncc2C#N)C2(F)CC2)c(Cl)n1` (stereo not drawn) [I-549]: the LogP is 1.99^[a]. On the same count and under the same terms, as for `N#Cc1cncn1CC(O)(c1ccc(C(F)(F)F)cc1Br)C1(F)CC1` (stereo not drawn) [I-435], the figure is 2.78^[a]; as for `CN(C)C(=O)OC(Cn1cncc1C#N)c1ccc(Oc2ccc(Br)cc2)cc1C(F)(F)F` (stereo not drawn) [I-92], 3.85^[a]. `N#Cc1cncn1CC(=O)c1ccc(Cl)cc1F` [IX-147] returned a chromatographic logP of 1.94. As for `CC(O)(Cn1cncc1C#N)c1ccc(Oc2ccc(Cl)cc2F)nc1C(F)(F)F` (stereo not drawn) [I-279], the LogP was 3.14^[a]. As to `N#Cc1cncn1CC(O)c1ccc(Oc2c(F)cc(Cl)cc2F)nc1C(F)(F)F` (stereo not drawn) [I-135], the LogP was 3.23^[a]. The same measure, in the same setting: to `N#Cc1cncn1CC(O)(c1ccc(F)cc1F)C1(F)CC1` (stereo not drawn) [I-352] belongs 2.08^[a]. For `CC(C)(C)C(O)(Cn1cncc1C#N)c1ccc(Cl)c(Cl)c1` (stereo not drawn) [I-456], the LogP was 3.16^[a]. The same measure, in the same setting: to `CC(O)(Cn1cncc1F)c1ccc(Oc2ccc(Br)cc2)nc1C(F)(F)F` (stereo not drawn) [I-213] belongs 2.35^[a]; to `N#Cc1cncn1CC(O)(c1ccc(Cl)cc1F)C1CCC1` (stereo not drawn) [I-448], 2.86^[a]; to `N#Cc1cncn1CC(O)(c1cc(F)cc(Cl)c1Cl)C1(F)CC1` (stereo not drawn) [I-568], 2.49^[a]. For the molecule `N#Cc1cncn1CC(O)(c1ccc(Cl)c(Cl)c1)C1(F)CC1` (stereo not drawn) [I-487], the LogP was 2.51^[a]. The same measure, in the same setting: as for `CC(O)(Cn1cncc1Br)c1ccc(Oc2ccc(I)cc2)cc1Cl` (stereo not drawn) [I-172], the figure is 3.17^[a]. `N#Cc1cncn1CC(=O)c1ccc(F)cc1F` [IX-87]: the chromatographic logP was 1.75.

For `N#Cc1cncn1CC(O)(c1cccc(F)c1Cl)C1(Cl)CC1` (stereo not drawn) [I-557], the LogP is 2.25^[a]. On to `N#Cc1cncn1CC(O)(c1cc(F)c(F)c(Br)c1)C1(F)CC1` (stereo not drawn) [I-471], for which the LogP was 2.58^[a]. For `N#Cc1cncn1CC(O)(c1ccc(C#CC2CCCC2)cc1F)C1(Cl)CC1` (stereo not drawn) [I-649], the LogP was 3.99^[a]. Same read-out and setting: as for `N#Cc1cncn1CC(O)(c1cc(F)c(Cl)cc1Cl)C1(F)CC1` (stereo not drawn) [I-578], the figure is 2.59^[a]; as for `CCC(C)C(O)(Cn1cncc1C#N)c1ccc(Cl)cc1` (single isomer, unassigned) [I-326], 2.78^[a]. On the same count and under the same terms, as for `CCCC(C)C=CC(O)(Cn1cncc1C#N)C1(Cl)CC1` (stereo not drawn) [I-689], the figure is 3.41^[a]. Same read-out and setting: to `N#Cc1cncn1CC(O)(C#CCC1CCCCC1)CC1CC1` (stereo not drawn) [I-593] belongs 3.33^[a]; to `CCCCC(O)(Cn1cncc1C#N)c1ccc(F)cc1Cl` (stereo not drawn) [I-276], 2.95^[a]. With `OC(Cn1cncc1F)c1ccc(Oc2ccc(C(F)F)cc2)nc1Cl` (stereo not drawn) [I-102], the LogP is 1.80^[a]. As to `OC(Cn1cncc1F)c1ccc(Oc2ccc(Cl)cc2)cc1C(F)(F)F` (stereo not drawn) [I-98], the LogP is 2.39^[a].

Take `N#Cc1cncn1CC(O)c1cnc(Oc2ccc(Cl)nc2)cc1C(F)(F)F` (stereo not drawn) [I-152]: the LogP was 2.32^[a].

For the molecule `CCc1cc(Cl)ccc1C(O)(Cn1cncc1C#N)C1(Cl)CC1` (stereo not drawn) [I-335], the LogP was 3.00^[a]. Still for that read-out and setting: to `N#Cc1cncn1CC(O)c1ccc(Oc2ccc(I)cc2)cc1F` (stereo not drawn) [I-49] belongs 3.24^[a]; to `N#Cc1cncn1CC(O)c1ccc(Oc2ccccc2)cc1Cl` (stereo not drawn) [I-76], 2.70^[a]. On the same count and under the same terms, to `Cc1ccc(C#CC(O)(Cn2cncc2C#N)C2(Cl)CC2)cc1` (stereo not drawn) [I-293] belongs 2.82^[a]; to `N#Cc1cncn1CC(O)(c1cc(Cl)c(F)cc1Cl)C1(F)CC1` (stereo not drawn) [I-575], 2.54^[a]. On the same count and under the same terms, as for `CCCCCCC(O)(CC1CC1)Cn1cncc1C#N` (stereo not drawn) [I-427], the figure is 3.35^[a]; as for `N#Cc1cncn1CC(O)c1ccc(Oc2ccc(C(F)(F)F)cc2)nc1C(F)(F)F` (stereo not drawn) [I-149], 3.13^[a]. In the case of `N#Cc1cncn1CC(O)(c1ccc(F)c(Cl)c1)C1(F)CC1` (stereo not drawn) [I-444], the LogP was 2.39^[a]. With `CC(O)(Cn1cncc1Cl)c1ccc(Oc2ccc(Cl)cn2)cc1Cl` (stereo not drawn) [I-181], the LogP is 2.28^[a].

Take `N#Cc1cncn1CC(O)(c1cc(Cl)c(Cl)cc1Cl)C1(F)CC1` (stereo not drawn) [I-576]: the LogP is 2.82^[a].

`N#Cc1cncn1CC(O)(c1ccc(F)cc1Br)C1CCCCC1` (stereo not drawn) [I-479]: the LogP is 3.46^[a].

With `CCCCC(O)(Cn1cncc1C#N)c1ccc(Cl)cc1F` (stereo not drawn) [I-263], the LogP was 3.19^[a].

Take `N#Cc1cncn1CC(O)(c1cc(Cl)ccc1Cl)C1(Cl)CC1` (stereo not drawn) [I-336]: the LogP is 2.56^[a]. Still for that read-out and setting: to `N#Cc1cncn1CC(O)(C#CC1CC1)C1(Cl)CC1` (stereo not drawn) [I-692] belongs 2.11^[a]; to `C[Si](C)(C)CCC(O)(Cn1cncc1C(F)(F)F)C1(Cl)CC1` (stereo not drawn) [I-691], 4.24^[a]. Still for that read-out and setting: as for `N#Cc1cncn1CC(O)c1ccc(Oc2ccc(Br)cc2)cc1C(F)(F)F` (stereo not drawn) [I-36], the figure is 3.46^[a]; as for `CCCCC(O)(Cn1cncc1C#N)c1ccc(C(F)(F)F)cc1` (stereo not drawn) [I-277], 2.94^[a]. On the same count and under the same terms, as for `N#Cc1cncn1CC(O)(c1ccc(Cl)cc1F)C1CCCC1` (stereo not drawn) [I-458], the figure is 3.12^[a]; as for `OC(Cn1cncc1F)(c1ccc(Cl)cc1F)C1(F)CC1` (stereo not drawn) [I-437], 1.57^[a]; as for `CC(O)(Cn1cncc1C#N)c1cnc(Oc2ccc(C(F)F)cc2)cc1C(F)(F)F` (stereo not drawn) [I-341], 2.80^[a]. Regarding `CC(C)CC(O)(Cn1cncc1C#N)c1ccc(Cl)cc1` (stereo not drawn) [I-285], the LogP is 2.70^[a]. The same measure, in the same setting: to `N#Cc1cncn1CC(O)(CC1CC1)c1cc(Cl)cc(Cl)c1` (stereo not drawn) [I-503] belongs 2.28^[a]; to `N#Cc1cncn1CC(O)c1ccc(Oc2ccccc2)cc1F` (stereo not drawn) [I-99], 2.54^[a]; to `N#Cc1cncn1CC(O)(CC1CC1)c1cc(F)c(Cl)c(Cl)c1` (stereo not drawn) [I-530], 2.97^[a]. On the same count and under the same terms, to `CC(O)(Cn1cncc1C#N)c1ccc(Oc2ccc(I)cc2)cc1Cl` (stereo not drawn) [I-202] belongs 3.73^[a]; to `OC(Cn1cncc1F)c1cnc(Oc2ccc(Cl)cc2)cc1C(F)(F)F` (stereo not drawn) [I-119], 2.23^[a]; to `CC(O)(Cn1cncc1C#N)c1cnc(Oc2ccc(C(F)(F)F)cc2)cc1Cl` (stereo not drawn) [I-254], 3.21^[a]. Same read-out and setting: as for `N#Cc1cncn1CC(O)(c1c(F)cc(F)cc1Cl)C1(F)CC1` (stereo not drawn) [I-574], the figure is 2.23^[a].

Regarding `CC(O)(Cn1cncc1C#N)c1ccc(Oc2ccc(Br)nc2)nc1C(F)(F)F` (stereo not drawn) [I-364], the LogP was 2.44^[a].

With `N#Cc1cncn1CC(O)(c1cc(Cl)cc(F)c1F)C1(F)CC1` (stereo not drawn) [I-570], the LogP is 2.44^[a].
